The assay deals with T1, C5a receptor (Homo sapiens, UniProt P21730).
T1 construct: endogenous in cells; host or cells: U937 cells differentiated with 1 mM dibutyryl cAMP
T1 sequence (P21730 1-350): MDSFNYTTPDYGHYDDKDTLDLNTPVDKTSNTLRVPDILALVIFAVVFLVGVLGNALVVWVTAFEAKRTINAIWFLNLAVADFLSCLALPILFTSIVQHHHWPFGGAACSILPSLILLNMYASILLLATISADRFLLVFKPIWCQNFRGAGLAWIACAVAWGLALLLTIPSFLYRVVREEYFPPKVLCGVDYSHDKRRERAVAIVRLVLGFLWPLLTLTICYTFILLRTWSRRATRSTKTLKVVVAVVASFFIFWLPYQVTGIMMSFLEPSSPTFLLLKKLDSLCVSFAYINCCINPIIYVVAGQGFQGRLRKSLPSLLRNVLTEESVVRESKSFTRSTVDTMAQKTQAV
The assay is described as follows: standard assay of C5a receptor mediated calcium mobilization. Format: cell-based. The conditions noted are these: Table I; asterisk = tested in C5a receptor mediated calcium mobilization assay; read-out: Ca2+ Mob. The method, then:
U937 cells are grown in differentiation media (1 mM dibutyrl cAMP in RPMI 1640 medium containing 10% fetal bovine serum) for 48 hrs at 37° C. then reseeded onto 96-well plates suitable for use in a FLIPR™ Plate Reader (Molecular Devices Corp., Sunnyvale Calif.). Cells are grown an additional 24 hours (to 70-90% confluence) before the assay. The cells are then washed once with Krebs Ringer solution. FLUO-3 calcium sensitive dye (Molecular Probes, Inc. Eugene, Oreg.) is added to 10 μg/mL and incubated with the cells at room temperature for 1 to 2 hours. The 96 well plates are then washed to remove excess dye. Fluorescence responses, measured by excitation at 480 nm and emission at 530 nm, are monitored upon the addition of human C5a to the cells to a final concentration of 0.01-30.0 nM, using the FLIPR™ device (Molecular Devices).
The calcium mobilization assay described above may be readily adapted for identifying test compounds that have agonist or antagonist activity at the human C5a receptor.
For example, in order to identify antagonist compounds, differentiated U937 cells are washed and incubated with Fluo-3 dye as described above. One hour prior to measuring the fluorescence signal, a subset of the cells is incubated with 1 μM of at least one compound to be tested. The fluorescence response upon the subsequent addition of 0.3 nM (final concentration) human recombinant C5a is monitored using the FLIPR™ plate reader. Antagonist compounds elicit at least a 2-fold decrease in the fluorescence response relative to that measured in the presence of human C5a alone. Preferred antagonist compounds elicit at least a 5-fold, preferably at least a 10-fold, and more preferably at least a 20-fold decrease in the fluorescence response relative to that measured in the presence of human C5a alone.

For the compound `O=C(c1ccccc1-c1ccc(F)cc1)N(Cc1ccccc1)Cc1ccccc1` [compound 34, N,N-dibenzyl4′-fluoro-1,1′-biphenyl-2-carboxamide], the Ki was less than 1000 nM.

With `CC(=O)Nc1cccc(-c2ccccc2C(=O)N(Cc2ccccc2)Cc2ccccc2)c1` [compound 35, 3′-(acetylamino)-N,N-dibenzyl-1,1′-biphenyl-2-carboxamide], the Ki is less than 1000 nM.

As for `O=C(c1ccccc1-c1ccc(OC(F)(F)F)cc1)N(Cc1ccccc1)Cc1ccccc1` [compound 36, N,N-dibenzyl-4′-(trifluoromethoxy)-1,1′-biphenyl-2-carboxamide], the Ki is less than 1000 nM.

As to `CSc1ccccc1-c1ccccc1C(=O)N(Cc1ccccc1)Cc1ccccc1` [compound 37, N,N-dibenzyl-2′-(methylthio)-1,1′-biphenyl-2-carboxamide], the Ki is less than 1000 nM.

Regarding `CCSc1ccc(-c2ccccc2C(=O)N(Cc2ccccc2)Cc2ccccc2)cc1` [compound 38, N,N-dibenzyl-4′-(ethylthio)-1,1′-biphenyl-2-carboxamide], the Ki is less than 1000 nM.

As to `O=C(c1ccccc1-c1cccc(F)c1)N(Cc1ccccc1)Cc1ccccc1` [compound 39, N,N-dibenzyl-3′-fluoro-1,1′-biphenyl-2-carboxamide], the Ki was less than 1000 nM.

As to `Cc1ccc(-c2ccccc2C(=O)N(Cc2ccccc2)Cc2ccccc2)cc1C` [compound 40, N,N-dibenzyl-3′,4′-dimethyl-1,1′-biphenyl-2-carboxamide], the Ki is less than 1000 nM.

As for `O=C(c1ccccc1-c1ccsc1)N(Cc1ccccc1)Cc1ccccc1` [compound 41, N,N-dibenzyl-2-thien-3-ylbenzamide], the Ki was less than 1000 nM.

Turning to `O=C(c1ccccc1-c1ccc(C(F)(F)F)cc1)N(Cc1ccccc1)Cc1ccccc1` [compound 42, N,N-dibenzyl-4′-(trifluoromethyl)-1,1′-biphenyl-2-carboxamide], the Ki was less than 1000 nM.

With `COc1ccccc1-c1ccccc1C(=O)N(Cc1ccccc1)Cc1ccccc1` [compound 43, N,N-dibenzyl-2′-methoxy-1,1′-biphenyl-2-carboxamide], the Ki is less than 1000 nM.

For the compound `COc1ccc(-c2ccccc2C(=O)N(Cc2ccccc2)Cc2ccccc2)cc1` [compound 44, N,N-dibenzyl-4′-methoxy-1,1′-biphenyl-2-carboxamide], the Ki was less than 1000 nM.

With `COc1ccc(-c2ccccc2C(=O)N(Cc2ccccc2)Cc2ccccc2)c(OC)c1` [compound 45, N,N-dibenzyl-2′,4′-dimethoxy-1,1′-biphenyl-2-carboxamide], the Ki was less than 1000 nM.

With `COc1ccc(-c2ccccc2C(=O)N(Cc2ccccc2)Cc2ccccc2)cc1OC` [compound 46, N,N-dibenzyl-3′,4 ′-dimethoxy-1,1′-biphenyl-2-carboxamide], the Ki is less than 1000 nM.

For `O=C(c1ccccc1-c1ccccc1)N(Cc1ccccc1)Cc1ccccc1` [compound 47, N,N-dibenzyl-1,1′-biphenyl-2-carboxamide], the Ki is less than 1000 nM.

As to `O=C(c1ccccc1-c1ccccc1Cl)N(Cc1ccccc1)Cc1ccccc1` [compound 48, N,N-dibenzyl-2′-chloro-1,1′-biphenyl-2-carboxamide], the Ki is less than 1000 nM.

Consider `O=C(c1ccccc1-c1cccc(Cl)c1)N(Cc1ccccc1)Cc1ccccc1` [compound 49, N,N-dibenzyl-3′-chloro-1,1′-biphenyl-2-carboxamide], for which the Ki was less than 1000 nM.

On to `O=C(c1ccccc1-c1ccc(Cl)cc1)N(Cc1ccccc1)Cc1ccccc1` [compound 50, N,N-dibenzyl-4′-chloro-1,1′-biphenyl-2-carboxamide], for which the Ki was less than 1000 nM.

Consider `O=C(c1ccccc1-c1cccc(Cl)c1Cl)N(Cc1ccccc1)Cc1ccccc1` [compound 51, N,N-dibenzyl-2′,3′-dichloro-1,1′-biphenyl-2-carboxamide], for which the Ki was less than 1000 nM.

For `O=C(c1ccccc1-c1ccc(Cl)cc1Cl)N(Cc1ccccc1)Cc1ccccc1` [compound 52, N,N-dibenzyl-2′,4′-dichloro-1,1′-biphenyl-2-carboxamide], the Ki is less than 1000 nM.

As to `Cc1ccccc1-c1ccccc1C(=O)N(Cc1ccccc1)Cc1ccccc1` [compound 53, N,N-dibenzyl-2′-methyl-1,1′-biphenyl-2-carboxamide], the Ki was less than 1000 nM.

As for `Cc1cccc(-c2ccccc2C(=O)N(Cc2ccccc2)Cc2ccccc2)c1` [compound 54, N,N-dibenzyl-3′-methyl-1,1′-biphenyl-2-carboxamide], the Ki is less than 1000 nM.

`Cc1ccc(-c2ccccc2C(=O)N(Cc2ccccc2)Cc2ccccc2)cc1` [compound 55, N,N-dibenzyl-4′-methyl-1,1′-biphenyl-2-carboxamide]: the Ki was less than 1000 nM.

For the compound `O=C(c1ccccc1-c1cc(Cl)cc(Cl)c1)N(Cc1ccccc1)Cc1ccccc1` [compound 56, N,N-dibenzyl-3′,5′-dichloro-1,1′-biphenyl-2-carboxamide], the Ki was less than 1000 nM.

As to `Cc1ccc(-c2ccccc2C(=O)N(Cc2ccccc2)C2Cc3ccccc3C2)cc1` [compound 58, N-benzyl-N-(indan-2-yl)4′-methyl-1,1′-biphenyl-2-carboxamide], the Ki is less than 1000 nM.

On to `Cc1csc(-c2ccccc2C(=O)N(Cc2ccccc2)C2Cc3ccccc3C2)c1` [compound 59, N-benzyl-N-(indan-2-yl)-2-(4-methylthien-2-yl)benzamide], for which the Ki was less than 1000 nM.

Turning to `O=C(c1ccccc1-c1ccccc1)N(Cc1ccccc1)C1Cc2ccccc2C1` [compound 60, N-benzyl-N-(indan-2-yl)-1,1′-biphenyl-2-carboxamide], the Ki was less than 1000 nM.

Turning to `O=C(c1ccccc1-c1ccccc1F)N(Cc1ccccc1)C1CCc2ccccc21` (centres unmarked) [compound 61, N-benzyl-N-(indan-1-yl)-2′-fluoro-1,1′-biphenyl-2-carboxamide], the Ki was less than 1000 nM.

For `COc1cccc(-c2ccccc2C(=O)N(Cc2ccccc2)C2Cc3ccccc3C2)c1` [compound 62, N-benzyl-N-(indan-2-yl)-3′-methoxy-1,1′-biphenyl-2-carboxamide], the Ki is less than 1000 nM.

As to `O=C(c1ccccc1-c1cccs1)N(Cc1ccccc1)C1Cc2ccccc2C1` [compound 63, N-benzyl-N-(indan-2-yl)-2-thien-2-ylbenzamide], the Ki was less than 1000 nM.

Take `COc1cccc(-c2ccccc2C(=O)N(Cc2ccc3c(c2)OCO3)C2Cc3ccccc3C2)c1` [compound 64, N-(1,3-benzodioxol-5-ylmethyl)-N-(indan-2-yl)-3′-methoxy-1,1′-biphenyl-2-carboxamide]: the Ki is less than 1000 nM.

Turning to `O=C(c1cccc2c1-c1ccccc1C2)N(Cc1ccc2c(c1)OCO2)C1Cc2ccccc2C1` [compound 65, N-(1,3-benzodioxol-5-ylmethyl)-N-(indan-2-yl)-9H-fluorene-4-carboxamide], the Ki is less than 1000 nM.

Consider `COc1ccc(-c2ccccc2)c(C(=O)N(Cc2ccccc2)C2Cc3ccccc3C2)c1` [compound 66, N-benzyl-N-(indan-2-yl)-4-methoxy-1,1′-biphenyl-2-carboxamide], for which the Ki was less than 1000 nM.

Take `COc1cccc(-c2ccccc2)c1C(=O)N(Cc1ccccc1)C1Cc2ccccc2C1` [compound 67, N-benzyl-N-(indan-2-yl)-3-methoxy-1,1′-biphenyl-2-carboxamide]: the Ki is less than 1000 nM.

Turning to `O=C(c1cc(O)ccc1-c1ccccc1)N(Cc1ccccc1)C1Cc2ccccc2C1` [compound 68, N-benzyl-N-(indan-2-yl)-4-hydroxy-1,1′-biphenyl-2-carboxamide], the Ki is less than 1000 nM.

For the compound `O=C(c1c(O)cccc1-c1ccccc1)N(Cc1ccccc1)C1Cc2ccccc2C1` [compound 69, N-benzyl-N-(indan-2-yl)-3-hydroxy-1,1′-biphenyl-2-carboxamide], the Ki was less than 1000 nM.

As for `COc1ccc(-c2ccc(C)s2)c(C(=O)N(Cc2ccccc2)C2Cc3ccccc3C2)c1` [compound 70, N-benzyl-N-(indan-2-yl)-5-methoxy-2-(5-methylthien-2-yl)benzamide], the Ki is less than 1000 nM.

Take `COc1ccc2c(c1)CC(N(Cc1ccccc1)C(=O)c1ccccc1-c1ccccc1)C2` (centres unmarked) [compound 71, N-benzyl-N-(5-methoxy-indan-2-yl)-1,1′-biphenyl-2-carboxamide]: the Ki is less than 1000 nM.

With `Cc1ccc2c(c1)CC(N(Cc1ccccc1)C(=O)c1ccccc1-c1ccccc1)C2` (centres unmarked) [compound 72, N-benzyl-N-(5-methyl-indan-2-yl)-1,1′-biphenyl-2-carboxamide], the Ki was less than 1000 nM.

The record behind these values is patent publication US7291621B2, “Substituted biaryl amides C5a receptor modulators” (Neurogen Corporation, priority 2002, dated 2007).
